According to patent US20140220069A1, “ACTIVE INGREDIENT DERIVED FROM TORULASPORA DELBRUECKII AND COSMETIC USE FOR IMPROVING AND/OR REPAIRING THE BARRIER FUNCTION OF THE SKIN” (SOCIETE INDUSTRIELLE LIMOUSINE D'APPLICATION BIOLOGIQUE, priority 2011, published 2014):

Columns and labels:
[1] = system: loricrin; assay: Synthesis of loricrin by Western Blot on normal human keratinocytes in a single layer; format: cell-based; settings: for effect on the synthesis of human keratinocyte loricrin in a single layer: human keratinocytes in a single layer
Description: The test is done on normal human keratinocytes, according to the operating procedure described in Item A.II of the part on the evaluation of the cosmetic effectiveness.
It was accomplished by Western Blot on normal human keratinocytes that are isolated from foreskins, according to the operating procedure described below.
On D0, the human keratinocytes are inoculated and then incubated at 37° C.
The cells are then incubated at 37° C.
On D7, the cellular extracts are recovered, and the Western Blot metering is carried out.

[2] = system: loricrin; assay: Synthesis of loricrin on reconstructed epidermis (immunohistological marking, image analysis); format: cell-based, human; settings: for Synthesis of Loricrin: D18, untreated control 100%; for synthesis of loricrin relative to the untreated control: mecamylamine 1,000 μM, nicotine 500 μM
Description: (§1) The procedure used to validate the agonist and the antagonist of the nAChRs is illustrated below for the synthesis of loricrin on reconstructed epidermis. It also applies to the synthesis of E-cadherin on reconstructed epidermis. The inserts comprising the epidermis under construction are placed in a culture medium containing: • 1,000 μM of mecamylamine (reversible antagonist of the nACHRs) or • 500 μM of nicotine (reversible agonist of the nACHRs).
On D18, the inserts are recovered, fixed, dehydrated, and incorporated into paraffin.
Cuts are made, and then an immunohistological marking of the loricrin is done.
Visualization is then done on a microscope coupled to an image analysis system. The intensity of the fluorescence (green color) is proportional to the synthesis of loricrin.
(§2) On D0, the human keratinocytes are cultivated in a culture medium and then inoculated on an insert.
(§3) On D13 and/or D18, the inserts are recovered, fixed, dehydrated, and incorporated into paraffin.
(§4) Next, cuts are made, and then an immunohistological marking of the loricrin or the E-cadherin is done.
(§5) The display is then produced on a microscope coupled to an image analysis system. The intensity of the fluorescence (green color) is proportional to the synthesis of loricrin or cadherin.

[3] = system: E-cadherin; assay: Synthesis of E-cadherin on reconstructed epidermis (immunohistological marking, image analysis); format: cell-based, human
Description: as §1, §2, §3, §4, §5

Row | Structure (SMILES) | Ratio of Loricrin/Control (%) [1] | effect on the synthesis of human keratinocyte loricrin in a single layer [1] | Synthesis of Loricrin ([2]; 500 μM) [%] | synthesis of loricrin relative to the untreated control [2] | effect on the synthesis of E-cadherin on reconstructed epidermis [3] | Change in loricrin synthesis versus control ([1]; 350 μM, normal human keratinocytes, Western Blot on D7) [%] | Synthesis of Loricrin ([2]; 1,000 μM) [%]
1 | CN1CCCC1c1cccnc1 (stereo not shown) [Nicotine, nicotine] | +51% | stimulating effect | 113 | increased | stimulating effect | – | –
2 | CNC1(C)C2CCC(C2)C1(C)C (stereo not shown) [Mecamylamine, mecamylamine] | – | inhibiting effect | – | reduced | inhibiting effect | −57 | 53
